From patent publication US12404262B2 (priority 2021, dated 2025)

Details: 1.0% DMSO, 24-hour incubation at ambient temperature, maximum theoretical 100 μM; for pH 2 solubility: 0.1N HCl, first value of the cell; for pH 7 solubility: 1×PBS buffer (pH 7.4), second value of the cell

pH 2 solubility | pH 7 solubility | SMILES
3 μM | 18 μM | CC(C)(C#Cc1ccc(-c2ccc(Cl)c3c(N(C(=O)NC(COC(=O)C(=O)O)COC(=O)C(=O)O)S(C)(=O)=O)nn(CC(F)(F)F)c23)c([C@H](Cc2cc(F)cc(F)c2)NC(=O)Cn2nc(C(F)(F)F)c3c2C(F)(F)[C@@H]2C[C@H]32)n1)S(C)(=O)=O [Compound 37, 2,2′-((2-(3-(4-chloro-7-(2-((S)-1-(2-((3bS,4aR)-5,5-difluoro-3-(trifluoromethyl)-3b,4,4a,5-tetrahydro-1H-cyclopropa[3,4]cyclopenta[1,2-c]pyrazol-1-yl)acetamido)-2-(3,5-difluorophenyl)ethyl)-6-(3-methyl-3-(methylsulfonyl)but-1-yn-1-yl)pyridin-3-yl)-1-(2,2,2-trifluoroethyl)-1H-indazol-3-yl)-3-(methylsulfonyl)ureido)propane-1,3-diyl)bis(oxy))bis(2-oxoacetic acid)]
1 μM | 100 μM | CC(C)(C#Cc1ccc(-c2ccc(Cl)c3c(N(C(=O)OCCCOP(=O)(O)O)S(C)(=O)=O)nn(CC(F)(F)F)c23)c([C@H](Cc2cc(F)cc(F)c2)NC(=O)Cn2nc(C(F)(F)F)c3c2C(F)(F)[C@@H]2C[C@H]32)n1)S(C)(=O)=O [Compound 98, 3-(phosphonooxy)propyl (4-chloro-7-(2-((S)-1-(2-((3bS,4aR)-5,5-difluoro-3-(trifluoromethyl)-3b,4,4a,5-tetrahydro-1H-cyclopropa[3,4]cyclopenta[1,2-c]pyrazol-1-yl)acetamido)-2-(3,5-difluorophenyl)ethyl)-6-(3-methyl-3-(methylsulfonyl)but-1-yn-1-yl)pyridin-3-yl)-1-(2,2,2-trifluoroethyl)-1H-indazol-3-yl)(methylsulfonyl)carbamate]
1 μM | 9 μM | C[C@@H](CC(=O)O)OC(=O)N(c1nn(CC(F)(F)F)c2c(-c3ccc(C#CC(C)(C)S(C)(=O)=O)nc3[C@H](Cc3cc(F)cc(F)c3)NC(=O)Cn3nc(C(F)(F)F)c4c3C(F)(F)[C@@H]3C[C@H]43)ccc(Cl)c12)S(C)(=O)=O [Compound 120, (S)-3-(((4-chloro-7-(2-((S)-1-(2-((3bS,4aR)-5,5-difluoro-3-(trifluoromethyl)-3b,4,4a,5-tetrahydro-1H-cyclopropa[3,4]cyclopenta[1,2-c]pyrazol-1-yl)acetamido)-2-(3,5-difluorophenyl)ethyl)-6-(3-methyl-3-(methylsulfonyl)but-1-yn-1-yl)pyridin-3-yl)-1-(2,2,2-trifluoroethyl)-1H-indazol-3-yl)(methylsulfonyl)carbamoyl)oxy)butanoic acid]
1 μM | 22 μM | CC(C)(C#Cc1ccc(-c2ccc(Cl)c3c(N(C(=O)OCOC(=O)/C=C/C(=O)O)S(C)(=O)=O)nn(CC(F)(F)F)c23)c([C@H](Cc2cc(F)cc(F)c2)NC(=O)Cn2nc(C(F)(F)F)c3c2C(F)(F)[C@@H]2C[C@H]32)n1)S(C)(=O)=O [Compound 93, (E)-4-((((4-chloro-7-(2-((S)-1-(2-((3bS,4aR)-5,5-difluoro-3-(trifluoromethyl)-3b,4,4a,5-tetrahydro-1H-cyclopropa[3,4]cyclopenta[1,2-c]pyrazol-1-yl)acetamido)-2-(3,5-difluorophenyl)ethyl)-6-(3-methyl-3-(methylsulfonyl)but-1-yn-1-yl)pyridin-3-yl)-1-(2,2,2-trifluoroethyl)-1H-indazol-3-yl)(methylsulfonyl)carbamoyl)oxy)methoxy)-4-oxobut-2-enoic acid]
1 μM | 9 μM | CC(C)(C#Cc1ccc(-c2ccc(Cl)c3c(N(C(=O)NCC(=O)O)S(C)(=O)=O)nn(CC(F)(F)F)c23)c([C@H](Cc2cc(F)cc(F)c2)NC(=O)Cn2nc(C(F)(F)F)c3c2C(F)(F)[C@@H]2C[C@H]32)n1)S(C)(=O)=O [Compound 72, ((4-chloro-7-(2-((S)-1-(2-((3bS,4aR)-5,5-difluoro-3-(trifluoromethyl)-3b,4,4a,5-tetrahydro-1H-cyclopropa[3,4]cyclopenta[1,2-c]pyrazol-1-yl)acetamido)-2-(3,5-difluorophenyl)ethyl)-6-(3-methyl-3-(methylsulfonyl)but-1-yn-1-yl)pyridin-3-yl)-1-(2,2,2-trifluoroethyl)-1H-indazol-3-yl)(methylsulfonyl)carbamoyl)glycine]
1/1 μM | 1/1 μM | CC(=O)N(c1nn(CC(F)(F)F)c2c(-c3ccc(C#CC(C)(C)S(C)(=O)=O)nc3[C@H](Cc3cc(F)cc(F)c3)NC(=O)Cn3nc(C(F)(F)F)c4c3C(F)(F)[C@@H]3C[C@H]43)ccc(Cl)c12)S(C)(=O)=O [Compound 1, N—((S)-1-(3-(4-chloro-3-(N-(methylsulfonyl)acetamido)-1-(2,2,2-trifluoroethyl)-1H-indazol-7-yl)-6-(3-methyl-3-(methylsulfonyl)but-1-yn-1-yl)pyridin-2-yl)-2-(3,5-difluorophenyl)ethyl)-2-((3bS,4aR)-5,5-difluoro-3-(trifluoromethyl)-3b,4,4a,5-tetrahydro-1H-cyclopropa[3,4]cyclopenta[1,2-c]pyrazol-1-yl)acetamide]
1 μM | 100 μM | CC(C)(C#Cc1ccc(-c2ccc(Cl)c3c(N(C(=O)OCCCCOP(=O)(O)O)S(C)(=O)=O)nn(CC(F)(F)F)c23)c([C@H](Cc2cc(F)cc(F)c2)NC(=O)Cn2nc(C(F)(F)F)c3c2C(F)(F)[C@@H]2C[C@H]32)n1)S(C)(=O)=O [Compound 102, 4-(phosphonooxy)butyl (4-chloro-7-(2-((S)-1-(2-((3bS,4aR)-5,5-difluoro-3-(trifluoromethyl)-3b,4,4a,5-tetrahydro-1H-cyclopropa[3,4]cyclopenta[1,2-c]pyrazol-1-yl)acetamido)-2-(3,5-difluorophenyl)ethyl)-6-(3-methyl-3-(methylsulfonyl)but-1-yn-1-yl)pyridin-3-yl)-1-(2,2,2-trifluoroethyl)-1H-indazol-3-yl)(methylsulfonyl)carbamate]
3 μM | 17 μM | CC(C)(C#Cc1ccc(-c2ccc(Cl)c3c(N(C(=O)NCCOP(=O)(O)O)S(C)(=O)=O)nn(CC(F)(F)F)c23)c([C@H](Cc2cc(F)cc(F)c2)NC(=O)Cn2nc(C(F)(F)F)c3c2C(F)(F)[C@@H]2C[C@H]32)n1)S(C)(=O)=O [Compound 41, 2-(3-(4-chloro-7-(2-((S)-1-(2-((3bS,4aR)-5,5-difluoro-3-(trifluoromethyl)-3b,4,4a,5-tetrahydro-1H-cyclopropa[3,4]cyclopenta[1,2-c]pyrazol-1-yl)acetamido)-2-(3,5-difluorophenyl)ethyl)-6-(3-methyl-3-(methylsulfonyl)but-1-yn-1-yl)pyridin-3-yl)-1-(2,2,2-trifluoroethyl)-1H-indazol-3-yl)-3-(methylsulfonyl)ureido)ethyl dihydrogen phosphate]
1 μM | 89 μM | CC(C)(C#Cc1ccc(-c2ccc(Cl)c3c(N(C(=O)OCCCCCOP(=O)(O)O)S(C)(=O)=O)nn(CC(F)(F)F)c23)c([C@H](Cc2cc(F)cc(F)c2)NC(=O)Cn2nc(C(F)(F)F)c3c2C(F)(F)[C@@H]2C[C@H]32)n1)S(C)(=O)=O [Compound 104, 5-(phosphonooxy)pentyl (4-chloro-7-(2-((S)-1-(2-((3bS,4aR)-5,5-difluoro-3-(trifluoromethyl)-3b,4,4a,5-tetrahydro-1H-cyclopropa[3,4]cyclopenta[1,2-c]pyrazol-1-yl)acetamido)-2-(3,5-difluorophenyl)ethyl)-6-(3-methyl-3-(methylsulfonyl)but-1-yn-1-yl)pyridin-3-yl)-1-(2,2,2-trifluoroethyl)-1H-indazol-3-yl)(methylsulfonyl)carbamate]
1/1 μM | 1/1 μM | CC(C)(C#Cc1ccc(-c2ccc(Cl)c3c(N(C(=O)O[C@H](C(=O)O)[C@H](O)C(=O)O)S(C)(=O)=O)nn(CC(F)(F)F)c23)c([C@H](Cc2cc(F)cc(F)c2)NC(=O)Cn2nc(C(F)(F)F)c3c2C(F)(F)[C@@H]2C[C@H]32)n1)S(C)(=O)=O [Compound 118, (2S,3S)-2-(((4-chloro-7-(2-((S)-1-(2-((3bS,4aR)-5,5-difluoro-3-(trifluoromethyl)-3b,4,4a,5-tetrahydro-1H-cyclopropa[3,4]cyclopenta[1,2-c]pyrazol-1-yl)acetamido)-2-(3,5-difluorophenyl)ethyl)-6-(3-methyl-3-(methylsulfonyl)but-1-yn-1-yl)pyridin-3-yl)-1-(2,2,2-trifluoroethyl)-1H-indazol-3-yl)(methylsulfonyl)carbamoyl)oxy)-3-hydroxysuccinic acid]
1/1 μM | 1/1 μM | CC(C)(C#Cc1ccc(-c2ccc(Cl)c3c(N(CCO)S(C)(=O)=O)nn(CC(F)(F)F)c23)c([C@H](Cc2cc(F)cc(F)c2)NC(=O)Cn2nc(C(F)(F)F)c3c2C(F)(F)[C@@H]2C[C@H]32)n1)S(C)(=O)=O [Compound 18, N—((S)-1-(3-(4-chloro-3-(N-(2-hydroxyethyl)methylsulfonamido)-1-(2,2,2-trifluoroethyl)-1H-indazol-7-yl)-6-(3-methyl-3-(methylsulfonyl)but-1-yn-1-yl)pyridin-2-yl)-2-(3,5-difluorophenyl)ethyl)-2-((3bS,4aR)-5,5-difluoro-3-(trifluoromethyl)-3b,4,4a,5-tetrahydro-1H-cyclopropa[3,4]cyclopenta[1,2-c]pyrazol-1-yl)acetamide]
10/10 μM | 10/10 μM | CC(C)(C#Cc1ccc(-c2ccc(Cl)c3c(N(C(=O)C(=O)N[C@@H](CC(=O)O)C(=O)O)S(C)(=O)=O)nn(CC(F)(F)F)c23)c([C@H](Cc2cc(F)cc(F)c2)NC(=O)Cn2nc(C(F)(F)F)c3c2C(F)(F)[C@@H]2C[C@H]32)n1)S(C)(=O)=O [Compound 12, (2-(N-(4-chloro-7-(2-((S)-1-(2-((3bS,4aR)-5,5-difluoro-3-(trifluoromethyl)-3b,4,4a,5-tetrahydro-1H-cyclopropa[3,4]cyclopenta[1,2-c]pyrazol-1-yl)acetamido)-2-(3,5-difluorophenyl)ethyl)-6-(3-methyl-3-(methylsulfonyl)but-1-yn-1-yl)pyridin-3-yl)-1-(2,2,2-trifluoroethyl)-1H-indazol-3-yl)methylsulfonamido)-2-oxoacetyl)-L-aspartic acid]
